Measurements from patent US20180179256A1 (priority 2015, published 2018).
“Also recorded” adds a separate entry of the source.

Each sequence was assayed on HLA-DR.
Type: cell-based, human

Row | Sequence | % Inhibition by HLA-DR blocking Ab | Peptide-specific T cell response on blocking HLA-DR (in words)
1 | AANIIGILHLILWILDRL [H7N9-10] | 68% | only partially inhibited
2 | IVYWKQWLSLKNLTQ [H7N9-14A] | 100% | 
3 | AVKLYKKLKREMTFHGA [H7N9-9] | 100% | 
4 | DKLYERVKRQLRENAEED [H7N9-8] | 89% | only partially inhibited
5 | PRYVKQNTLKLATG [IAV-3, reference compound] | 78% | only partially inhibited
6 | QITFMQALQLLLEVE [H7N9-12] | 100% | 
7 | SRKLLLIVQALRDNLEPG [H7N9-11] | increased response | response increased; also recorded: response was absent except when HLA-DR was blocked
8 | PRYVKQSTLKLATG [IAV-2, reference compound] | 73% | only partially inhibited
9 | PRYVKQRSLLLATG [H7N9-13] | 100% | 
10 | QPEWFRNVLSIAPIMFSNK [H7N9-4] | 100% | 
11 | PKYVKSTKLRLATG [IAV-1, reference compound] | 100% | 
12 | YAEMKWLLSNTDNAAFPQ [H7N9-2] | 100% | 
13 | RIDFHWLMLNPNDTVTFS [H7N9-1] | 46% | only partially inhibited
14 | PKYVKSNRLVLATG [IAV-4, reference compound] | 96% | only partially inhibited
15 | KGILGFVFTLTVPSERGLQ [H7N9-3] | 97% | only partially inhibited

Each sequence was assayed on Normal subject PBMC.
Type: cell-based, human

Row | Sequence | Responses to the pool of IAV peptides (1-4) in presence of peptide | Suppression of T cell response to pool of H7N9 ICS peptides | Suppression of T cell responses to immunodominant HA peptides from circulating IAV strains
16 | WKQWLSLKNTLTQGSL [H7N9-14B] | Reduced responses |  | 
17 | IVYWKQWLSLKNLTQ [H7N9-14A] | Reduced responses |  | 
18 | AVKLYKKLKREMTFHGA [H7N9-9] |  | did not suppress T cell responses | 
19 | PRYVKQRSLLLATG [H7N9-13] | Reduced responses | significantly suppressed T cell response to the pooled peptides; also recorded: significantly decreased | significantly suppressed T cell response to IAV-3; also recorded: able to suppress responses
